Results as given in the NIST ThermoML archive (doi:10.1021/acs.jced.5b00717).
Numbers after ± are expanded uncertainties.

Experiment: an = ratio of the nth substance listed
Settings: 101 kPa, Liquid; for mass density: Vibrating tube method; for viscosity: rotating cylinders

| Structure (SMILES) | mass density (293.15 K, a2 = 2) | mass density (293.15 K, a2 = 4) | viscosity (293.15 K, a2 = 2) | viscosity (293.15 K, a2 = 4) | mass density (298.15 K, a2 = 2) | mass density (298.15 K, a2 = 4) | viscosity (298.15 K, a2 = 2) | viscosity (298.15 K, a2 = 4) | mass density (303.15 K, a2 = 2) | mass density (303.15 K, a2 = 4) | viscosity (303.15 K, a2 = 2) | viscosity (303.15 K, a2 = 4) | mass density (308.15 K, a2 = 2) | mass density (308.15 K, a2 = 4) | viscosity (308.15 K, a2 = 2) | viscosity (308.15 K, a2 = 4) | mass density (313.15 K, a2 = 2) | mass density (313.15 K, a2 = 4) | viscosity (313.15 K, a2 = 2) | viscosity (313.15 K, a2 = 4) | also measured |
| --- | --- | --- | --- | --- | --- | --- | --- | --- | --- | --- | --- | --- | --- | --- | --- | --- | --- | --- | --- | --- | --- |
| C[N+](C)(C)CCO.[Cl-] [choline chloride] + OCC(O)CO | 1194 ± 5 kg/m3 | 1217 ± 5 kg/m3 | 514.6 ± 41 mPa·s | 578.2 ± 48 mPa·s | 1191 ± 5 kg/m3 | 1214 ± 5 kg/m3 | 365.7 ± 25 mPa·s | 400.3 ± 28 mPa·s | 1188 ± 5 kg/m3 | 1211 ± 5 kg/m3 | 265.7 ± 15 mPa·s | 283.4 ± 17 mPa·s | 1185 ± 5 kg/m3 | 1208 ± 5 kg/m3 | 197 ± 9.3 mPa·s | 205.1 ± 9.9 mPa·s | 1183 ± 5 kg/m3 | 1205 ± 5 kg/m3 | 148.9 ± 5.6 mPa·s | 151.7 ± 5.8 mPa·s | mass density (318.15 K, a2 = 2): 1180 ± 5 kg/m3; mass density (318.15 K, a2 = 4): 1202 ± 5 kg/m3; viscosity (318.15 K, a2 = 2): 114.7 ± 3.4 mPa·s; viscosity (318.15 K, a2 = 4): 113 ± 3.3 mPa·s; mass density (323.15 K, a2 = 2): 1177 ± 5 kg/m3; mass density (323.15 K, a2 = 4): 1200 ± 5 kg/m3; viscosity (323.15 K, a2 = 2): 89.81 ± 2 mPa·s; viscosity (323.15 K, a2 = 4): 87.96 ± 1.9 mPa·s |
| C[N+](C)(C)C.[Cl-] [tetramethylammonium chloride] + OCC(O)CO | 1158 ± 5 kg/m3 | 1180 ± 5 kg/m3 | 581.8 ± 48 mPa·s | 557.5 ± 46 mPa·s | 1155 ± 5 kg/m3 | 1177 ± 5 kg/m3 | 406.9 ± 29 mPa·s | 384.7 ± 27 mPa·s | 1152 ± 5 kg/m3 | 1174 ± 5 kg/m3 | 290.5 ± 17 mPa·s | 272 ± 16 mPa·s | 1149 ± 5 kg/m3 | 1171 ± 5 kg/m3 | 212.4 ± 10 mPa·s | 197 ± 9.3 mPa·s | 1147 ± 5 kg/m3 | 1168 ± 5 kg/m3 | 158.5 ± 6.3 mPa·s | 145.8 ± 5.4 mPa·s | mass density (318.15 K, a2 = 2): 1144 ± 5 kg/m3; mass density (318.15 K, a2 = 4): 1166 ± 5 kg/m3; viscosity (318.15 K, a2 = 2): 120.7 ± 3.7 mPa·s; viscosity (318.15 K, a2 = 4): 110.2 ± 3.1 mPa·s; mass density (323.15 K, a2 = 2): 1141 ± 5 kg/m3; mass density (323.15 K, a2 = 4): 1163 ± 5 kg/m3; viscosity (323.15 K, a2 = 2): 93.57 ± 2.1 mPa·s; viscosity (323.15 K, a2 = 4): 84.8 ± 1.7 mPa·s |
